Active and inactive are the calls of the source. The calls are words filed in the database; no cut-off is given here.
Key:
RAW264.7 [1] = experiment: Induction of apoptosis in mouse RAW264.7 cells assessed as apoptotic cells at 16 uM by flow cytometry analysis (reference value: 3.26 %); format: functional
RAW264.7 [2] = experiment: Induction of apoptosis in mouse RAW264.7 cells assessed as apoptotic cells at 4 uM by flow cytometry analysis (reference value: 3.26 %); format: functional
[3] = Toxicity in BALB/c mouse assessed as effect on body weight loss at 1000 ug measured after 16 hrs in presence of hemagglutinin; details: in vivo, dose 1000 µg
RAW264.7 [4] = experiment: Induction of apoptosis in mouse RAW264.7 cells assessed as necrotic cells at 4 uM by flow cytometry analysis (reference value: 20.6 %); format: functional
[5] = Toxicity in C57BL/6 mouse assessed as effect on glucose level in serum at 500 ug measured after 1 day after immunization; details: 24 h, dose 500 µg
RAW264.7 [6] = experiment: Induction of apoptosis in mouse RAW264.7 cells assessed as necrotic cells at 10 uM by flow cytometry analysis (reference value: 20.6 %); format: functional
B16-OVA melanoma cell [7] = experiment: Antitumor activity against mouse B16-OVA melanoma cell xenografted in C57BL/6 mouse assessed as at 500 ug administered 5 times for every 2 days from day 9 to 17; format: functional, cell-based; details: dose 500.0 µg, time 9.0 day
Mus musculus [8] = organism: Mus musculus; experiment: Induction of immune response in OVAp immunized C57BL/6 mouse assessed as fold increase in IFN-gamma+ cytotoxic T lymphocytes at 100 ug measured after 35 days by flow cytometry analysis; format: functional, T-cell; details: dose 100 µg; time 35 day
[9] = Toxicity in BALB/c mouse assessed as reduction in leukocyte count measured after 16 hrs; details: dose 100-1000 µg
RAW264.7 [10] = experiment: Induction of apoptosis in mouse RAW264.7 cells assessed as apoptotic cells at 10 uM by flow cytometry analysis (reference value: 3.26 %); format: functional
RAW264.7 [11] = experiment: Induction of apoptosis in mouse RAW264.7 cells assessed as live cells at 10 uM by flow cytometry analysis (reference value: 75.4 %); format: functional
[12] = Toxicity in C57BL/6 mouse assessed as effect on liver at 500 ug, sc by H and E staining based analysis; format: organism-based; details: in vivo, dose 500 µg
RAW264.7 [13] = experiment: Induction of apoptosis in mouse RAW264.7 cells assessed as necrotic cells at 8 uM by flow cytometry analysis (reference value: 20.6 %); format: functional
RAW264.7 [14] = experiment: Induction of apoptosis in mouse RAW264.7 cells assessed as necrotic cells at 16 uM by flow cytometry analysis (reference value: 20.6 %); format: functional
[15] = Upregulation of CD40 expression in mouse RAW264.7 cells assessed as fold increase in fluorescence intensity at 20 uM measured after 24 hrs by flow cytometry analysis; format: functional
BMDC [16] = experiment: Cytotoxicity against mouse BMDC cells at 80 uM incubated for 24 hrs by Celltiter-Glo luminescence assay; format: toxicity, cell-based
BMDC [17] = experiment: Upregulation of CD86 expression in mouse BMDC cells at 5 to 50 uM measured after 24 hrs in presence of OVAp by flow cytometry analysis; format: functional, cell-based; details: dose 5-50 µM
RAW264.7 [18] = experiment: Induction of apoptosis in mouse RAW264.7 cells assessed as live cells at 4 uM by flow cytometry analysis (reference value: 75.4 %); format: functional
B16-OVA melanoma cell [19] = experiment: Antitumor activity against mouse B16-OVA melanoma cell xenografted in C57BL/6 mouse assessed as increase in CD8+T cell level in spleen at 500 ug measured after 24 hrs in presence of OVAp by flow cytometry analysis; format: functional, cell-based; details: dose 500.0 µg
[20] = Toxicity in C57BL/6 mouse assessed as effect on heart at 500 ug, sc by H and E staining based analysis; format: organism-based; details: in vivo, dose 500 µg
RAW264.7 [21] = experiment: Induction of apoptosis in mouse RAW264.7 cells assessed as necrotic cells at 12 uM by flow cytometry analysis (reference value: 20.6 %); format: functional
RAW264.7 [22] = experiment: Induction of apoptosis in mouse RAW264.7 cells assessed as live cells at 8 uM by flow cytometry analysis (reference value: 75.4 %); format: functional
[23] = Toxicity in C57BL/6 mouse assessed as effect on body weight at 500 ug measured from day 9 to 21; details: in vivo, 312 h, dose 500 µg, time 13 day
RAW264.7 [24] = experiment: Induction of apoptosis in mouse RAW264.7 cells assessed as apoptotic cells at 8 uM by flow cytometry analysis (reference value: 3.26 %); format: functional
[25] = Upregulation of CD86 expression in mouse BMDC cells assessed as fold increase at 5 to 50 uM measured after 24 hrs in presence of OVAp by flow cytometry analysis; format: functional; details: dose 5-50 µM
RAW264.7 [26] = experiment: Upregulation of CD86 expression in mouse RAW264.7 cells measured after 24 hrs by flow cytometry analysis; format: functional, cell-based; details: dose 10-50 µM
[27] = Toxicity in C57BL/6 mouse assessed as effect on spleen at 500 ug, sc by H and E staining based analysis; format: organism-based; details: in vivo, dose 500 µg
BMDC [28] = experiment: Induction of immune response in TLR7 knockout mouse BMDC cells assessed as increase in TNF-alpha production at 10 to 100 uM incubated for 24 hrs by ELISA method; format: functional, cell-based; details: dose 10-100 µM
[29] = Toxicity in C57BL/6 mouse assessed as effect on creatinine level in serum at 500 ug measured after 1 day after immunization; details: 24 h, dose 500 µg
BMDC [30] = experiment: Induction of immune response in TLR7 knockout mouse BMDC cells assessed as increase in MIP-1alpha production at 10 to 100 uM incubated for 24 hrs by ELISA method; format: functional, cell-based; details: dose 10-100 µM
BMDC [31] = experiment: Induction of IL-6 production in mouse BMDC cells at 100 uM; format: functional, cell-based
RAW264.7 [32] = experiment: Induction of apoptosis in mouse RAW264.7 cells assessed as live cells at 16 uM by flow cytometry analysis (reference value: 75.4 %); format: functional
[33] = Toxicity in C57BL/6 mouse assessed as effect on urea level in serum at 500 ug measured after 1 day after immunization; details: 24 h, dose 500 µg
B16-OVA melanoma cell [34] = experiment: Antitumor activity against mouse B16-OVA melanoma cell xenografted in C57BL/6 mouse assessed as effect on central memory T cell in spleen at 500 ug, sc in presence of OVAp by flow cytometry analysis; format: functional, organism-based; details: dose 500.0 µg
B16-OVA melanoma cell [35] = experiment: Antitumor activity against mouse B16-OVA melanoma cell xenografted in C57BL/6 mouse assessed as at 500 ug administered 5 times for every 2 days from day 9 to 17 in presence of OVAp; format: functional, cell-based; details: dose 500.0 µg, time 9.0 day
Mus musculus [36] = experiment: Immuno-adjuvant activity in SV-immunized C57BL/6 mouse assessed as increase in HA-specific IgG1 titer level at 100 ug, sc administered immediately and on day 0, 14 and measured at day 21 by ELISA; format: functional, organism-based; details: dose 100.0 µg, time 21.0 day
[37] = Antitumor activity against mouse B16-OVA melanoma cell xenografted in C57BL/6 mouse assessed as fold increase in IFN-gamma+TNF-alpha+ at 500 ug, sc in presence of OVAp by flow cytometry analysis; format: functional; details: dose 500 µg
[38] = Toxicity in BALB/c mouse assessed as increase in Mx2 expression at 100 to 1000 ug measured after 16 hrs in presence of hemagglutinin; details: in vivo, dose 100-1000 µg

## C[C@H](CCC(=O)NCCCCCCCNC(=O)CC[C@@H](C)[C@H]1CC[C@H]2[C@@H]3CC[C@@H]4C[C@H](O)CC[C@]4(C)[C@H]3C[C@H](O)[C@]12C)[C@H]1CC[C@H]2[C@@H]3CC[C@@H]4C[C@H](O)CC[C@]4(C)[C@H]3C[C@H](O)[C@]12C
RAW264.7 [1]
  Activity: 0.63%
RAW264.7 [2]
  Activity: 2.1%
[3]
  Activity: Non-Toxic
RAW264.7 [4]
  Activity: 19%
[5]
  Activity: Non-Toxic
RAW264.7 [6]
  Activity: 28.6%
B16-OVA melanoma cell [7]
  Activity: inactive
Mus musculus [8]
  fold change (FC): 7.6
[9]
  Activity: Non-Toxic
RAW264.7 [10]
  Activity: 2.23%
RAW264.7 [11]
  Activity: 67.2%
[12]
  Activity: Non-Toxic
RAW264.7 [13]
  Activity: 36.1%
RAW264.7 [14]
  Activity: 34%
[15]
  fold change (FC): 1.3
BMDC [16]
  Activity: Non-Toxic
BMDC [17]
  Activity: Active
RAW264.7 [18]
  Activity: 77.8%
B16-OVA melanoma cell [19]
  Activity: Active
[20]
  Activity: Non-Toxic
RAW264.7 [21]
  Activity: 30.5%
RAW264.7 [22]
  Activity: 60.7%
[23]
  Activity: Non-Toxic
RAW264.7 [24]
  Activity: 1.47%
[25]
  fold change (FC): 1.2
RAW264.7 [26]
  Activity: Dose-Dependent Effect
[27]
  Activity: Non-Toxic
BMDC [28]
  Activity: inactive
[29]
  Activity: Non-Toxic
BMDC [30]
  Activity: inactive
BMDC [31]
  Activity: Active
RAW264.7 [32]
  Activity: 63.4%
[33]
  Activity: Non-Toxic
B16-OVA melanoma cell [34]
  Activity: Active
B16-OVA melanoma cell [35]
  Activity: Active
Mus musculus [36]
  Activity: Active
[37]
  fold change (FC): 2.8
[38]
  Activity: Non-Toxic
